Each structure is given as a SMILES string.

One assay deals with T1, full-length human PKCι (Homo sapiens, UniProt P41743).
T1 construct: Recombinant, full-length human PKCι expressed in Sf21 insect cells is also commercially available; purchased; host or cells: Sf21 insect cells
T1 sequence (P41743 1-596): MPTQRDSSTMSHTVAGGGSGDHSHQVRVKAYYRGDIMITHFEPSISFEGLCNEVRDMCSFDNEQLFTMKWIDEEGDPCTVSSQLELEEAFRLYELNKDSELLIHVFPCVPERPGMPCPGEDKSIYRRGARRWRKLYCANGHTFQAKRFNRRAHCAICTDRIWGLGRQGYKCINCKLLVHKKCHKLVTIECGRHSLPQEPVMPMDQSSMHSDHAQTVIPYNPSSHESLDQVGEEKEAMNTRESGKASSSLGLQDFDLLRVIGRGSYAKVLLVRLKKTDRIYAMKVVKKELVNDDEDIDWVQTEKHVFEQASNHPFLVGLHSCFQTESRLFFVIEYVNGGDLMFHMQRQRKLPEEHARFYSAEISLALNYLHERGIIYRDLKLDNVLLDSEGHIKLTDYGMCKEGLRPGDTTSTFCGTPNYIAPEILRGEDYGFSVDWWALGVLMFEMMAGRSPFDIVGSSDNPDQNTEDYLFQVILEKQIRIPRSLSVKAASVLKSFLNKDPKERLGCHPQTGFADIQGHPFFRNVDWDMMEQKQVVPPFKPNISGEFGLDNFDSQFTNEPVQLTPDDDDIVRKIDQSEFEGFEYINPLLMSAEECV
The assay can be described thus: PKCι IC50 IMAP fluorescence polarisation assay, full-length enzyme. In kind it is biochemical. The note with it: full length PKCi at 15 μM ATP; read-out: IC50 in IMAP assay against full length PKCi.
As to `N[C@H](CNc1nc(-c2ccncc2)nc2c(Br)csc12)Cc1ccccc1` [compound 336, (S)—N*1*-(7-Bromo-2-pyridin-4-yl-thieno[3,2-d]pyrimidin-4-yl)-3-phenyl-propane-1,2-diamine], the IC50 is under 100 nM.
On the same count and under the same terms, the same measure for `CCOc1ccc(Cl)cc1-c1c(C)sc2c(NC[C@@H](N)Cc3ccccc3)nc(-c3ccncc3)nc12` [compound 463, (S)-N*1*-[7-(5-Chloro-2-ethoxy-phenyl)-6-methyl-2-pyridin-4-yl-thieno[3,2-d]pyrimidin-4-yl]-3-phenyl-propane-1,2-diamine]: 10000 to 40000 nM; for `N[C@H](CNc1nc(-c2ccncc2)nc2ccsc12)Cc1ccccc1` [compound 314, (S)-3-Phenyl-N*1*-(2-pyridin-4-yl-thieno[3,2-d]pyrimidin-4-yl)-propane-1,2-diamine]: 100 to 1000 nM; for `N[C@H](CNc1nc(-c2ccncc2F)nc2c(C#CCO)csc12)Cc1ccccc1` [compound 506, 3-[4-((S)-2-Amino-3-phenyl-propylamino)-2-(3-fluoro-pyridin-4-yl)-thieno[3,2-d]pyrimidin-7-yl]-prop-2-yn-1-ol]: under 100 nM.
For `CC(C)NC(=O)c1csc2c(NC[C@@H](N)Cc3ccccc3)nc(-c3ccncc3)nc12` [compound 555, 4-((S)-2-Amino-3-phenyl-propylamino)-2-pyridin-4-yl-thieno[3,2-d]pyrimidine-7-carboxylic acid isopropylamide], the concentration for half-maximal inhibition (IC50) is 1000 to 10000 nM.
Same read-out and setting: the same measure for `CNC(=O)Nc1cc(-c2nc(N[C@@H]3CCNC3)c3sccc3n2)ccn1` [compound 583, 1-Methyl-3-{4-[4-((R)-pyrrolidin-3-ylamino)-thieno[3,2-d]pyrimidin-2-yl]-pyridin-2-yl}-urea]: 1000 to 10000 nM; for `C[C@H](O)C#Cc1csc2c(N[C@@H]3CCNC3)nc(-c3ccncc3F)nc12` [compound 527, (S)-4-[2-(3-Fluoro-pyridin-4-yl)-4-((R)-pyrrolidin-3-ylamino)-thieno[3,2-d]pyrimidin-7-yl]-but-3-yn-2-ol]: 10000 to 40000 nM; for `N[C@H](CNc1nc(-c2ccncc2)nc2c(Nc3ccccc3)csc12)Cc1ccccc1` [compound 485, N*4*-((S)-2-Amino-3-phenyl-propyl)-N*7*-phenyl-2-pyridin-4-yl-thieno[3,2-d]pyrimidine-4,7-diamine]: 100 to 1000 nM.
In the case of `Cn1nccc1-c1csc2c(NC[C@@H](N)Cc3ccccc3)nc(-c3ccncc3)nc12` [compound 391, (S)-N*1*-[7-(2-Methyl-2H-pyrazol-3-yl)-2-pyridin-4-yl-thieno[3,2-d]pyrimidin-4-yl]-3-phenyl-propane-1,2-diamine], the IC50 fell in the range of 1000 to 10000 nM.
On the same count and under the same terms, the same measure for `CC(C)(C)c1sc2c(NC[C@@H](N)Cc3ccccc3)nc(-c3ccncc3)nc2c1Br` [compound 334, (S)-N*1*-(7-Bromo-6-tert-butyl-2-pyridin-4-yl-thieno[3,2-d]pyrimidin-4-yl)-3-phenyl-propane-1,2-diamine]: 1000 to 10000 nM; for `Cc1cc(Nc2csc3c(N[C@@H]4CCNC4)nc(-c4ccncc4F)nc23)no1` [compound 496, 2-(3-Fluoro-pyridin-4-yl)-N*7*-(5-methyl-isoxazol-3-yl)-N*4*-(R)-pyrrolidin-3-yl-thieno[3,2-d]pyrimidine-4,7-diamine]: 10000 to 40000 nM; for `CC(C)(O)C#Cc1c(C(C)(C)C)sc2c(NC[C@@H](N)Cc3ccccc3)nc(-c3ccncc3)nc12` [compound 505, 4-[4-((S)-2-Amino-3-phenyl-propylamino)-6-tert-butyl-2-pyridin-4-yl-thieno[3,2-d]pyrimidin-7-yl]-2-methyl-but-3-yn-2-ol]: 1000 to 10000 nM.
Take `O=C(Nc1cc(-c2nc(N[C@@H]3CCNC3)c3sccc3n2)ccn1)C1CC1` [compound 599, Cyclopropanecarboxylic acid {4-[4-((R)-pyrrolidin-3-ylamino)-thieno[3,2-d]pyrimidin-2-yl]-pyridin-2-yl}-amide]: the 50% inhibitory concentration (IC50) fell in the range of 100 to 1000 nM.
For the molecule `N[C@H](CNc1nc(-c2ccncc2)nc2c(Br)csc12)CC1CCCCC1` [compound 348, (S)-N*1*-(7-Bromo-2-pyridin-4-yl-thieno[3,2-d]pyrimidin-4-yl)-3-cyclohexyl-propane-1,2-diamine], the IC50 was 100 to 1000 nM.
As for `Cc1sc2c(NC[C@@H](N)Cc3ccccc3)nc(-c3ccncc3)nc2c1-c1ccc(F)nc1` [compound 438, (S)-N*1*-[7-(6-Fluoro-pyridin-3-yl)-6-methyl-2-pyridin-4-yl-thieno[3,2-d]pyrimidin-4-yl]-3-phenyl-propane-1,2-diamine], the IC50 fell in the range of 1000 to 10000 nM.
Take `c1cn(Cc2ccc(Nc3cc(-c4nc(N[C@@H]5CCNC5)c5sccc5n4)ccn3)cc2)cn1` [compound 614, {2-[2-(4-Imidazol-1-ylmethyl-phenylamino)-pyridin-4-yl]-thieno[3,2-d]pyrimidin-4-yl}-(R)-pyrrolidin-3-yl-amine]: the half-maximal inhibitory concentration (IC50) lay within 100 to 1000 nM.
In the case of `Cc1sc2c(NC[C@@H](N)Cc3ccccc3)nc(-c3ccncc3)nc2c1C#CC(C)(C)O` [compound 504, 4-[4-((S)-2-Amino-3-phenyl-propylamino)-6-methyl-2-pyridin-4-yl-thieno[3,2-d]pyrimidin-7-yl]-2-methyl-but-3-yn-2-ol], the half-maximal inhibitory concentration (IC50) is under 100 nM.
For `N[C@H](CNc1nc(-c2ccncc2F)nc2c(-c3ccc[nH]3)csc12)Cc1ccccc1` [compound 419, (S)-N*1*-[2-(3-Fluoro-pyridin-4-yl)-7-(1H-pyrrol-2-yl)-thieno[3,2-d]pyrimidin-4-yl]-3-phenyl-propane-1,2-diamine], the 50% inhibitory concentration (IC50) was 100 to 1000 nM.
Turning to `N[C@H](CNc1nc(-c2ccncc2F)nc2c(Nc3ccccc3)csc12)Cc1ccccc1` [compound 491, N*4*-((S)-2-Amino-3-phenyl-propyl)-2-(3-fluoro-pyridin-4-yl)-N*7*-phenyl-thieno[3,2-d]pyrimidine-4,7-diamine], the half-inhibitory concentration (IC50) lay within 1000 to 10000 nM.
`CC[C@H](O)C#Cc1csc2c(NC[C@@H](N)Cc3ccccc3)nc(-c3ccncc3)nc12` [compound 521]: the half-maximal inhibitory concentration (IC50) is under 100 nM.
On to `N[C@H](CNc1nc(-c2ccncc2)nc2c(Nc3ccccn3)csc12)Cc1ccccc1` [compound 486, N*4*-((S)-2-Amino-3-phenyl-propyl)-2-pyridin-4-yl-N*7*-pyridin-2-yl-thieno[3,2-d]pyrimidine-4,7-diamine], for which the half-inhibitory concentration (IC50) is under 100 nM.
For `Clc1cnccc1-c1nc(N[C@@H]2CCNC2)c2sccc2n1` [compound 322, [2-(3-Chloro-pyridin-4-yl)-thieno[3,2-d]pyrimidin-4-yl]-(R)-pyrrolidin-3-yl-amine], the concentration for half-maximal inhibition (IC50) was 1000 to 10000 nM.
Take `Fc1cnccc1-c1nc(N[C@@H]2CCNC2)c2scc(Nc3ccccn3)c2n1` [compound 495, 2-(3-Fluoro-pyridin-4-yl)-N*7*-pyridin-2-yl-N*4*- (R)-pyrrolidin-3-yl-thieno[3,2-d]pyrimidine-4,7-diamine]: the IC50 is 10000 to 40000 nM.
For `C#Cc1csc2c(N[C@@H]3CCNC3)nc(-c3ccncc3)nc12` [compound 559, (7-Ethynyl-2-pyridin-4-yl-thieno[3,2-d]pyrimidin-4-yl)-(R)-pyrrolidin-3-yl-amine], the 50% inhibitory concentration (IC50) lay within 100 to 1000 nM.
Still for that read-out and setting: the same measure for `COc1ccc(C(C)C)cc1-c1c(C)sc2c(NC[C@@H](N)Cc3ccccc3)nc(-c3ccncc3)nc12` [compound 462, (S)-N*1*-[7-(5-Isopropyl-2-methoxy-phenyl)-6-methyl-2-pyridin-4-yl-thieno[3,2-d]pyrimidin-4-yl]-3-phenyl-propane-1,2-diamine]: 10000 to 40000 nM.

Staying with this assay, now noted: full length PKCi at 15 μM ATP; read-out: IC50 in IMAP assay against full length PKCi (Activity).
In the case of `c1cc(-c2nc(NC[C@H]3CCCCN3)c3c4c(sc3n2)CCCC4)ccn1` [compound 62, (R)-1-Piperidin-2-ylmethyl-(2-pyridin-4-yl-5,6,7,8-tetrahydro-benzo[4,5]thieno[2,3-d]pyrimidin-4-yl)-amine], the IC50 was in the range of 1000 to 10000 nM.
Same read-out and setting: in the case of `N[C@@H](CNc1nc(-c2ccncc2)nc2sc3c(c12)CCSC3)Cc1ccccc1` [compound 81, (R)-3-Phenyl-N*1*-(2-pyridin-4-yl-5,8-dihydro-6H-thiopyrano[4′,3′:4,5]thieno[2,3-d]pyrimidin-4-yl)-propane-1,2-diamine] it was 1000 to 10000 nM; in that of `c1ccc(C[C@H]2CN(c3nc(-c4cn[nH]c4)nc4sc5c(c34)CCCC5)CCN2)cc1` [compound 196, 4-((S)-3-Benzyl-piperazin-1-yl)-2-(1H-pyrazol-4-yl)-5,6,7,8-tetrahydro-benzo[4,5]thieno[2,3-d]pyrimidine], 1000 to 10000 nM; in that of `CC(=O)N1CCc2c(sc3nc(-c4ccncc4)nc(NCCN)c23)C1` [compound 105, 1-[4-(2-Amino-ethylamino)-2-pyridin-4-yl-5,8-dihydro-6H-pyrido[4′,3′:4,5]thieno[2,3-d]pyrimidin-7-yl]-ethanone], 1000 to 10000 nM.
Consider `CC(C)(C)OC(=O)N1CCc2c(sc3nc(-c4ccncc4)nc(NC[C@@H](N)Cc4ccccc4)c23)C1` [compound 90, 4-((S)-2-Amino-3-phenyl-propylamino)-2-pyridin-4-yl-5,8-dihydro-6H-pyrido[4′,3′:4,5]thieno[2,3-d]pyrimidine-7-carboxylic acid tert-butyl ester], for which the IC50 was in the range of 1000 to 10000 nM.
